Reference: patent US11124605B2, “Antimicrobial alpha-helical cationic polypeptides” (priority 2015, dated 2021)

Experiments:
[1] = system: C101 (Pseudomonas aeruginosa); assay: Minimal inhibitory concentration (MIC); format: cell-based; settings: without polypeptide
Method: (§1) Gram-negative bacteria, DH5a (E. coli), MG1655 (E. coli), C101 (Pseudomonas aeruginosa), and Gram-positive bacteria, ATCC12608 (S. aureus), ATCC11778 (Bacillus toyonensis), and methicillin-resistant S. aureus (MRSA) strains, NRS382, NRS383, NRS384 were grown in LB medium at 37° C. Clinical isolated Helicobacter pylori strains, B107, J291, J99, J99-AF, J99-A9 and J99-A11 were incubated in BB with 10% FBS supplemented with vancomycin (5 μg/mL) at 37° C. Among them, J99-AF, J99-A9 and J99-A11 are drug resistant bacteria. For determination of the MIC, polypeptides were dissolved in media using serial dilutions from a stock solution. Into each well of a 96-well plate was added 200 μL of each concentration and 2 μL of bacteria (1×10^8 CFU (colony forming units)) in medium. The plate was incubated at 37° C. The optical density readings of microorganism solutions were measured after 24 h incubation. The MIC was considered as the lowest concentration of peptide where no visual growth of bacteria was detected.

MG1655 (E. coli) = assay: Minimal inhibitory concentration (MIC); format: cell-based, Escherichia coli; settings: without polypeptide
Method: as §1

[2] = system: trypsin, pronase, elastase from Pseudomonas aeruginosa, elastase from human leukocytes; assay: Stability of polypeptides against protease (HPLC); format: in vitro ADME; settings: 8 h incubation with trypsin, P. aeruginosa elastase or human leukocyte elastase
Method: As a positive control, LL-37 (0.1 mg/mL) was also incubated with trypsin (0.1 mg/mL) or pronase (12 mg/L) or Pseudomonas Aeruginosa elastase (0.6 mg/L) in Tris buffer (pH 7.4) at 37° C. LL-37 (0.1 mg/mL) was incubated with elastase from human leukocytes (2.5 mg/L) in sodium acetate buffer at 37° C. After 8 h of incubation, the samples were taken out for HPLC analyses.

DH5α (Escherichia coli) = assay: Minimal inhibitory concentration (MIC); format: cell-based; settings: without polypeptide
Method: Gram-negative bacteria, DH5a (E. coli), MG1655 (E. coli), C101 (Pseudomonas aeruginosa), and Gram-positive bacteria, ATCC12608 (S. aureus), ATCC11778 (Bacillus toyonensis), and methicillin-resistant S. aureus (MRSA) strains, NRS382, NRS383, NRS384 were grown in LB medium at 37° C. […] For determination of the MIC, polypeptides were dissolved in media using serial dilutions from a stock solution. Into each well of a 96-well plate was added 200 μL of each concentration and 2 μL of bacteria (1×10^8 CFU (colony forming units)) in medium. The plate was incubated at 37° C. The optical density readings of microorganism solutions were measured after 24 h incubation. The MIC was considered as the lowest concentration of peptide where no visual growth of bacteria was detected.

[3] = system: ATCC12608 (Staphylococcus aureus); assay: Minimal inhibitory concentration (MIC); format: cell-based; settings: without polypeptide
Method: as §1
The stability of polypeptide was tested in the MIC assay in different environments, including salts, serum, plasma, tear fluid, and mucin. […]

[4] = system: ATCC11778 (Bacillus toyonensis); assay: Minimal inhibitory concentration (MIC); format: cell-based; settings: without polypeptide
Method: as §1

| Compound | MIC of antibiotic [1] | MIC of antibiotic (MG1655 (E. coli)) | also measured |
| --- | --- | --- | --- |
| C[C@H]1c2cccc(O)c2C(=O)C2=C(O)[C@]3(O)C(=O)C(C(N)=O)=C(O)[C@@H](N(C)C)[C@@H]3[C@@H](O)[C@@H]21 [Doxycycline, doxycycline] | 288.0 µM | 4.5 µM |  |
| CO[C@H]1/C=C/O[C@@]2(C)Oc3c(C)c(O)c4c(O)c(c(/C=N/N5CCN(C)CC5)c(O)c4c3C2=O)NC(=O)/C(C)=C\C=C\[C@H](C)[C@H](O)[C@@H](C)[C@@H](O)[C@@H](C)[C@H](OC(C)=O)[C@@H]1C [Rifampicin, rifampicin] | 77.8 µM | 9.7 µM |  |
| LL-37 |  |  | proteolytic degradation by HPLC [2]: readily degraded |
| gentamicin | 8.4 µM | 2.1 µM |  |
| [H]/N=C(/N)N[C@H]1[C@H](O)[C@@H](O)[C@H](O[C@@H]2O[C@@H](C)[C@](O)(C=O)[C@H]2O[C@@H]2O[C@@H](CO)[C@H](O)[C@@H](O)[C@@H]2NC)[C@@H](N/C(N)=N\[H])[C@@H]1O [Streptomycin, streptomycin] |  |  | MIC of antibiotic (DH5α (Escherichia coli)): 6.9 µM; MIC of antibiotic [3]: 6.9 µM; MIC of antibiotic [4]: 6.9 µM |
